Measured values published in patent publication US5073559A, “2-Substituted purinone having phosphodiesterase inhibitory activity” (Smith Kline & French Laboratories, Ltd., priority 1988, dated 1991).

Experiments:
[1] = system: U46619-induced bronchoconstriction; test: Bronchodilatation in vivo: inhibition of U46619-induced bronchoconstriction in anaesthetised guinea-pigs; parameters: species or system guinea-pig (Dunkin Hartley); conditions: Cavia porcellus, iv; i.v. bolus; U46619 infused i.v. at 2.5 nmol/min; range over the listed Examples; read-out: BD50 (dose of compound required to reduce the U46619-induced bronchoconstriction by 50%)
Experimental: Male guinea-pigs of the Dunkin Hartley strain (500-600 g) were anaesthetised with Sagatal (pentobarbital sodium) (60 mg/kg). Airway resistance was measured using a modification of the classical Konzett-Rossler technique (J. Pharm. Methods, 13, 309-315, 1985). U46619 (9,11-methanoepoxy-PGH2) was infused i.v. at a rate of 2.5 nmol/min, this produced a steady state of bronchoconstriction (approximately 120% increase from basal airway resistance). The compound under test was administered by i.v. bolus injection, and the subsequent peak inhibition of bronchoconstriction recorded.
The dose of compound required to reduce the U46619-induced bronchoconstriction by 50% is given as the BD50. The compounds of Examples 2, 3, 6, 11, 14 and 15 had BD50 values in the range 0.58-7.24 μmol/kg.

[2] = target: calmodulin insensitive cyclic GMP phosphodiesterase (Homo sapiens, UniProt O76074); test: Inhibition of calmodulin insensitive cyclic GMP phosphodiesterase; format: biochemical; conditions: procedure of European Patent Application No. 293063; range over the listed Examples; read-out: IC50 (concentration of inhibitor required for 50% inhibition of enzyme activity)
Experimental: The activity of the compounds of the present invention as inhibitors of a calmodulin insensitive cyclic GMP phosphodiesterase was measured using the procedure described in European Patent Application No. 293063. […] The compounds of the present invention have the advantage that the are selective in not inhibiting cyclic AMP phosphodiesterase (type III)

[3] = system: ovalbumen antigen challenge bronchoconstrictor response; test: Anti-allergic activity: inhibition of ovalbumen-induced bronchoconstrictor response in sensitised guinea-pigs; format: in vivo, guinea-pig (Duncan Hartley); conditions: ovalbumen 1 mg/kg i.v.
Experimental: Male Duncan Hartley guinea-pigs (250-300 g) were sensitised to ovalbumen by i.p. injection of 2 ml of 50mg.ml^-1 i.p. and 0.2 ml s.c. Three weeks later they were anaesthetised with 60 mg.kg^-1 sodium pentobarbitone. The trachea was cannulated and the animal respired at a rate of 40 breaths per minute and at an initial tracheal inflation pressure of 16 mmHg. Tracheal inflation pressure was measured by a transducer connected to a side arm of the respiration circuit. The carotid artery was cannulated for the measurement of blood pressure and the signal was used to trigger an instantaneous rate meter. A jugular vein was cannulated for the administration of drug and allergen. After surgery the animals were allowed to stabilise and the drug was administered i.v. as a bolus. Following this, ovalbumen 1 mg.kg^-1 was injected i.v. as the antigen challenge either 2, 15 or 30 minutes following drug treatment and the peak bronchoconstrictor response recorded. For the control group ovalbumen only was given. One ovalbumen challenge per guinea-pig was used and n=6 for each time point. The percentage increase in tracheal inflation pressure was calculated. The following results indicating an anti-allergic activity were obtained.

| Compound | ED50 [1] | IC50 [2] | other results |
| --- | --- | --- | --- |
| CCCOc1ccccc1-c1nc2nc(-c3ccccc3)[nH]c2c(=O)[nH]1 [Example 6, 2-(2-Propoxyphenyl)-8-phenylpurin-6-one] | 0.58 to 7.24 µmol/kg | 310 to 4800 nM | – |
| O=c1[nH]c(-c2ccccc2OCC2CC2)nc2nc[nH]c12 [Example 2, 2-(2-Cyclopropylmethoxyphenyl)purin-6-one] | 0.58 to 7.24 µmol/kg | – | – |
| O=c1[nH]c2nc(-c3ccccc3OCC3CC3)[nH]c(=O)c2[nH]1 [Example 3, 2-(2-Cyclopropylmethoxyphenyl)purin-6,8-dione] | 0.58 to 7.24 µmol/kg | – | % Inhibition of Control Bronchoconstrictor Response 30 min after drug administration ([3]; dose 18.4 μmol/kg i.v.): 24% |
| CCCOc1ccc([N+](=O)[O-])cc1-c1nc2nc[nH]c2c(=O)[nH]1 [Example 11, 2-(2-Propoxy-5-nitrophenyl)purin-6-one] | 0.58 to 7.24 µmol/kg | – | – |
| CCCOc1ccc(Cl)cc1-c1nc2nc[nH]c2c(=O)[nH]1 [Example 15, 2-(2-Propoxy-5-chlorophenyl)purin-6-one] | 0.58 to 7.24 µmol/kg | – | % Inhibition of Control Bronchoconstrictor Response 30 min after drug administration ([3]; dose 16.6 μmol/kg i.v.): 30% |
| CCCOc1ccc(OC)cc1-c1nc2nc[nH]c2c(=O)[nH]1 [Example 14, 2-(2-Propoxy-5-methoxyphenyl)purin-6-one] | 0.58 to 7.24 µmol/kg | – | – |
| CCCOc1ccccc1-c1nc2nc(S)[nH]c2c(=O)[nH]1 [Example 8, 2-(2-Propoxyphenyl)-8-mercaptopurin-6-one] | – | 310 to 4800 nM | – |
| CCCOc1ccccc1-c1nc2nc(SC)[nH]c2c(=O)[nH]1 [Example 9, 2-(2-Propoxyphenyl)-8-methylthiopurin-6-one] | – | 310 to 4800 nM | – |
